Measurements taken from the NIST ThermoML archive (doi:10.1007/s10765-011-1128-2).
± gives the expanded uncertainty stated by the source.

Settings: Crystal

SMILES: O [water]
- vapor or sublimation pressure (223.15 K): 0.003925 ± 0.00011 kPa
- vapor or sublimation pressure (228.15 K): 0.007147 ± 0.00016 kPa
- vapor or sublimation pressure (233.15 K): 0.01277 ± 0.00026 kPa
- vapor or sublimation pressure (238.14 K): 0.02221 ± 0.00034 kPa
- vapor or sublimation pressure (243.16 K): 0.03791 ± 0.00046 kPa
- vapor or sublimation pressure (248.16 K): 0.06315 ± 0.00066 kPa
- vapor or sublimation pressure (253.14 K): 0.103 ± 0.00097 kPa
- vapor or sublimation pressure (258.15 K): 0.165 ± 0.0012 kPa
- vapor or sublimation pressure (263.15 K): 0.2596 ± 0.0016 kPa
- vapor or sublimation pressure (268.15 K): 0.4016 ± 0.0022 kPa
- vapor or sublimation pressure (273.16 K): 0.6117 ± 0.003 kPa
